The values below come from patent US8883833B2, “Substituted benzoazole PDE4 inhibitors for treating inflammatory, cardiovascular and CNS disorders” (Decode Genetics EHF, priority 2007, dated 2014).

In one experiment the target is h4B1 (Homo sapiens, UniProt Q07343). Nature of the experiment: In-vitro assay for PDE4 enzymes, real-time enzyme-coupled spectrophotometric assay (Table 3). The experiment is classed as biochemical. How it is done:
(§1) In-vitro assay for PDE4 enzymes. The in-vitro activity of PDE4 enzymes and the in-vitro potency of therapeutic agents described in the present invention was measured using a real-time, enzyme-coupled spectrophotometric assay. By using three different coupling enzymes, the product of the PDE4 reaction is coupled to the oxidation of the reduced form β-nicotinamide adenine dinucleotide (NADH), which dissipation can be monitored spectrophotmetrically at […]. Assay description. Buffer A containing 50 mM Tris, pH 8.0, 16 mM MgCl2 and 80 mM KCl is prepared and stored at room temperature. Buffer B containing 50 mM Tris, pH 8.0 is prepared and stored at toom temperature. Stock solutions of the following reagents are prepared in Buffer B and stored at −20° C.: Adenosine-5′-triphosphate (ATP), cyclic adenosine-5′-monophosphate (cAMP), phosphoenolpyruvate (PEP) and NADH. An assay mix is prepared by mixing Buffer A, […] (TCEP), ATP, PEP, NADH, myokinase (MK), pyruvate kinase (PK), lactate dehydroganese (LDH) and PDE4 to a final volume of 20 mL, which is enough for a single 96-well assay plate. Assay mix (180 μL) and test article (10 μL) in 1:1 DMSO/H2O mixture is pre-incubated at room temperature for 10 min. The enzymatic reaction is initiated by addition of cAMP (10 μL). Final concentration of all components in the assay (200 μL/well) are as follows: 10 mM MgCl2, 50 mM KCl, 5 mM TCEP, 2.5% DMSO, 0.4 mM NADH, 1 mM PEP, 0.04 mM ATP, 5 units MK, 1 unit PK, 1 unit LDH and appropriate amount of PDE4. Reaction progress curves are monitored in a plate reader capable of measuring light absorbance at 340 nm. A decrease in light absorbance at 340 nm is due to oxidation of NADH. Positive controls containing no test article and negative controls containing no test article and no cAMP are included on every assay plate. Reaction rates are determined from the slopes of the linear portions of the progress curves. All data is percent normalized with respect to controls and presented as percent inhibition.

The target in the next experiment is h4D7 (Homo sapiens, UniProt Q08499). Described as above. It is filed as biochemical. How it is done:
as §1

In a further experiment the test system is rat model. The following applies: rat model in vivo; cited from earlier work.
In a further experiment the test system is rodent models. The following applies: multiple rodent models; cited from earlier work.
The next experiment concerns primates. The following applies: cited from earlier work.
The test system of the next experiment is mice. The following applies: two separate studies in mice in vivo; cited from earlier work.
For experiment [1], the system named is rat model of Huntington's disease. The following applies: cited from earlier work.
For a further experiment, the system named is human. The following applies: human clinical trials; cited from earlier work.
The next experiment concerns rats. The following applies: cited from earlier work.
Experiment [2] deals with patients suffering from asthma and COPD. The following applies: cited from earlier work; for results of administration to patients: asthma and COPD patients, initial.

Sequence of h4D7 (Q08499 1-748 isoform Q08499-11): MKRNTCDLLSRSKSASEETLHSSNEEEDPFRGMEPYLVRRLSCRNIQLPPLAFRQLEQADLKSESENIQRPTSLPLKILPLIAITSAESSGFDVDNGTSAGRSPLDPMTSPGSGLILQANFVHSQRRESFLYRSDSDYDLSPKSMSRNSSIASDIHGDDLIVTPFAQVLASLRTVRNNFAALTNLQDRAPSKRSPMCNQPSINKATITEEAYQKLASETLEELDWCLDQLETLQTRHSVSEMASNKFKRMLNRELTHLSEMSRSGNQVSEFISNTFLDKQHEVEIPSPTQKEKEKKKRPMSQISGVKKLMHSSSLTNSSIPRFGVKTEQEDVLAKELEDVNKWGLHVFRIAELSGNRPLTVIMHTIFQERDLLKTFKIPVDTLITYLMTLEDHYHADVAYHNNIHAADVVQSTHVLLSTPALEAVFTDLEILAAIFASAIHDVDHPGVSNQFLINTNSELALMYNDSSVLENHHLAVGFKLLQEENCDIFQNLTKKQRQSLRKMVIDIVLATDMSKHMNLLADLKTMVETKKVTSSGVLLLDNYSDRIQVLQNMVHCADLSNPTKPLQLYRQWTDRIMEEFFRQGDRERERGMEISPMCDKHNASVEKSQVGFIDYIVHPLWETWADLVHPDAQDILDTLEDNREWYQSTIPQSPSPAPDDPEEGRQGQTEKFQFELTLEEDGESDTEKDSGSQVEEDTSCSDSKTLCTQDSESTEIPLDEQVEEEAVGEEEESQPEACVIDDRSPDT
Sequence of h4B1 (Q07343 whole entry): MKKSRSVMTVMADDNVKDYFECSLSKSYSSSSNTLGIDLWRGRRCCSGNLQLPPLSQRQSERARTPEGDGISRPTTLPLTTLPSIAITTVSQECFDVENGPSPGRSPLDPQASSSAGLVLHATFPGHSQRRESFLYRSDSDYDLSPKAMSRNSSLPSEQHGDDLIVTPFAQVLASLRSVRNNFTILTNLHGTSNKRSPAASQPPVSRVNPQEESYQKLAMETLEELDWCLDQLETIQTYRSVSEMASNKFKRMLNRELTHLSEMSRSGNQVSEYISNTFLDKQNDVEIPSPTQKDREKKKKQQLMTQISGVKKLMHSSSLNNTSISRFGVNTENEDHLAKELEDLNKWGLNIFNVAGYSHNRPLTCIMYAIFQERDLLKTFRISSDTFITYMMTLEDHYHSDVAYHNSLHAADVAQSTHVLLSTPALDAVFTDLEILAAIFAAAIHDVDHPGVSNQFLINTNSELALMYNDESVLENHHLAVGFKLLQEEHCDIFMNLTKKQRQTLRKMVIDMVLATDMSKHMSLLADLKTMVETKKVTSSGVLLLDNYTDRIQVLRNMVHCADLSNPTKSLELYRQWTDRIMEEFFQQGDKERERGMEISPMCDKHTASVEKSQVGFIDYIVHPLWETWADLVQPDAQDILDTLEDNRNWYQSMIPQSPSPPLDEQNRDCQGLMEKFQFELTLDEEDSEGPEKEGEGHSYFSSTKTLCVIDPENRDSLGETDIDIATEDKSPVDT

Usually IC50 stands for the concentration that gives 50% inhibition. A higher IC50 goes with a need for much substance. For the molecule `CS(=O)(=O)Nc1ccc(Cc2cc(-c3cccc(Cl)c3)c3nc(N)sc3c2)cc1` [Example 18, N-{4-[2-Amino-4-(3-chloro-phenyl)-benzothiazol-6-ylmethyl]-phenyl}-methanesulfonamide], the IC50 against h4B1 was 1000 to 10000 nM; on h4D7, < 1000 nM.
On the same counts, the results for `CS(=O)(=O)Nc1ccc(Cc2cc3sc(N)nc3c(-c3cccc(Cl)c3)c2F)cc1` [Example 19, N-{4-[2-amino-4-(3-chloro-phenyl)-5-fluoro-benzothiazol-6-ylmethyl]-phenyl}-methanesulfonamide] are 1000 to 10000 nM and 1000 to 10000 nM.
On to `CS(=O)(=O)Nc1ccc(Cc2cc(-c3cccc(Cl)c3)c3nc(N)oc3c2)cc1` [Example 20, N-{4-[2-Amino-4-(3-chloro-phenyl)-benzooxazol-6-ylmethyl]-phenyl}-methanesulfonamide], for which the results for the IC50 against h4B1 and against h4D7 were 1000 to 10000 nM and < 1000 nM, respectively.
With `NC(=O)Nc1ccc(Cc2cc3sc(N)nc3c(-c3cccc(Cl)c3)c2F)cc1` [Example 21, {4-[2-amino-4-(3-chloro-phenyl)-5-fluoro-benzothiazol-6-ylmethyl]-phenyl}-urea], the IC50 on h4B1 and against h4D7 was < 1000 nM in each case.
For `Cc1nc2c(-c3cccc(Cl)c3)cc(Cc3ccc(N)cc3)cc2o1` [Example 22, 4-{[4-(3-chlorophenyl)-2-methyl-1,3-benzoxazol-6-yl]methyl}aniline], the IC50 against h4B1 and at h4D7 was < 1000 nM throughout.
With `Nc1ccc(Cc2cc3scnc3c(-c3cccc(Cl)c3)c2F)cc1` [Example 23, 4-[4-(3-chloro-phenyl)-5-fluoro-benzothiazol-6-ylmethyl]-phenylamine], the half-inhibitory concentration (IC50) against h4B1 and on h4D7 was < 1000 nM each time.
In the case of `Cc1nc2c(-c3cccc(Cl)c3)cc(Cc3ccc(NC(N)=O)cc3)cc2o1` [Example 24, N-(4-{[4-(3-chlorophenyl)-2-methyl-1,3-benzoxazol-6-yl]methyl}phenyl)urea], the IC50 at h4B1 and against h4D7 was < 1000 nM in each case.
Consider `Nc1ccc(Cc2cc(-c3cccc(Cl)c3)c3ncsc3c2)cc1` [Example 25, 4-[4-(3-Chloro-phenyl)-benzothiazol-6-ylmethyl]-phenylamine], for which the IC50 at h4B1 and at h4D7 was < 1000 nM throughout.
As to `Nc1ccc(Cc2cc(-c3cccc(Cl)c3)c3nc(N)sc3c2)cc1` [Example 26, 6-(4-Amino-benzyl)-4-(3-chloro-phenyl)-benzothiazol-2-ylamine], the IC50 against h4B1 and at h4D7 was < 1000 nM each time.
Take `CCNC(=O)Nc1ccc(Cc2cc3scnc3c(-c3cccc(Cl)c3)c2F)cc1` [Example 30, 1-{4-[4-(3-chloro-phenyl)-5-fluoro-benzothiazol-6-ylmethyl]-phenyl}-3-ethyl-urea]: the IC50 at h4B1 and against h4D7 was < 1000 nM in each case.
Take `NC(=O)N1CCN(Cc2cc3scnc3c(-c3cccc(Cl)c3)c2F)CC1` [Example 31, 4-[4-(3-Chloro-phenyl)-5-fluoro-benzothiazol-6-ylmethyl]-piperazine-1-carboxylic acid amide]: the IC50 against h4B1 and against h4D7 was < 1000 nM in each case.
With `Nc1ccc(Cc2cc(-c3cccc(Cl)c3)c3nc(N)oc3c2)cc1` [Example 32, 6-(4-aminobenzyl)-4-(3-chlorophenyl)-1,3-benzoxazol-2-amine], the IC50 against h4B1 and at h4D7 was < 1000 nM each time.
On to `CCNC(=O)Nc1ccc(Cc2cc3scnc3c(-c3cccc(Cl)c3)c2F)cn1` [Example 33, 1-[5-[4-(3-chloro-phenyl)-5-fluoro-benzothiazol-6-ylmethyl]-pyridin-2-yl]-3-ethyl-urea], for which the IC50 against h4B1 and against h4D7 was < 1000 nM each time.
For `COc1ccc(Cc2cc3scnc3c(-c3cccc(Cl)c3)c2F)cn1` [Example 38, 4-(3-chloro-phenyl)-5-fluoro-6-(6-methoxy-pyridin-3-ylmethyl)-benzothiazole], the IC50 against h4B1 was 1000 to 10000 nM; at h4D7 it was < 1000 nM.
On to `Oc1cccc(Cc2cc3scnc3c(-c3cccc(Cl)c3)c2F)c1` [Example 39, 3-[4-(3-chloro-phenyl)-5-fluoro-benzothiazol-6-ylmethyl]-phenol], for which the figures for the half-maximal inhibitory concentration (IC50) against h4B1 and against h4D7 were 1000 to 10000 nM and < 1000 nM, respectively.
For `CCOC(=O)Nc1ccc(Cc2cc3scnc3c(-c3cccc(Cl)c3)c2F)cn1` [Example 40, {5-[4-(3-chloro-phenyl)-5-fluoro-benzothiazol-6-ylmethyl]-pyridin-2-yl}-carbamic acid ethyl ester], the IC50 was > 30000 nM at h4B1 and < 1000 nM at h4D7.
On the same counts, the results for `CC(=O)N1CCN(Cc2cc3scnc3c(-c3cccc(Cl)c3)c2F)CC1` [Example 44, 1-{4-[4-(3-Chloro-phenyl)-5-fluoro-benzothiazol-6-ylmethyl]-piperazin-1-yl}-ethanone] are 10000 to 20000 nM and 1000 to 10000 nM.
For `CCOC(=O)NC1CCN(Cc2cc3scnc3c(-c3cccc(Cl)c3)c2F)CC1` [Example 45, {1-[4-(3-Chloro-phenyl)-5-fluoro-benzothiazol-6-ylmethyl]-piperidin-4-yl}-carbamic acid ethyl ester], the IC50 at h4B1 is 1000 to 10000 nM; against h4D7, < 1000 nM.
For the molecule `Cc1noc(/C(=C/c2cccc(-c3cc(C(C)(C)S(C)(=O)=O)cc4cccnc34)c2)c2ccc(S(C)(=O)=O)cc2)n1` [L-454,560], in the experiment with rat model, the learning result is reported as “improve learning”.
Regarding `COc1ccc(C2CNC(=O)C2)cc1OC1CCCC1` (stereo not drawn) [Rolipram], the cognition result with rodent models and with primates was “enhance cognition” each time. Moreover, the “outcome in schizophrenia models” value in the experiment on mice is recorded as “improves the outcome”. In addition, the neuroprotection entry in experiment [1] was “neuroprotective effect”. For the same molecule, the depression entry in the experiment on human was “ameliorate depression”.
In the case of `CCc1ccc2c(-c3cccc(Cl)c3)nc(=O)n(CC)c2n1` [YM976], in the experiment with rats, the “effects of experimentally-induced interstitial cystitis” value is “ameliorate the effects”, the frequency of urination result is “decrease” and the “volume of urine at each time of urination” value is recorded as “increase”.
With `COc1ccc([C@]2(C#N)CC[C@@H](C(=O)O)CC2)cc1OC1CCCC1` [cilomilast], the “results of administration to patients” value in [2] is listed as “initially excellent results”. In experiment [2] (long-term trial), the “effect on long-term trial” value was “disappeared”.
On to `O=C(Nc1c(Cl)cncc1Cl)c1ccc(OC(F)F)c(OCC2CC2)c1` [roflumilast], for which the “results of administration to patients” value in experiment [2] is “initially excellent results”.
